Test results reported in publication PMC10762035, “Molecular basis of human trace amine-associated receptor 1 activation” (Nature Communications, 2024).
Values joined by “and” are separate entries in the source; they are usually repeats but may differ in a detail not shown here. Equal values may be shown once. Where a name gives a salt, the structure may show the parent alone.

Experiments:
hTA1 [1] = target: T1, hTA1 (Homo sapiens, UniProt Q96RJ0); experiment: Screen of 89 aminergic compounds at 10 µM, cAMP accumulation in HEK293T cells; assay type: cell-based; conditions: quadruplicate values; screen at 10 µM;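 note: HEK293T cells co-transfected with hTA1 and GloSensor cAMP reporter, cAMP accumulation detected by luminescence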
T1 construct: expressed in transfected cells; host or cells: HEK293T
T1 sequence (Q96RJ0 1-339): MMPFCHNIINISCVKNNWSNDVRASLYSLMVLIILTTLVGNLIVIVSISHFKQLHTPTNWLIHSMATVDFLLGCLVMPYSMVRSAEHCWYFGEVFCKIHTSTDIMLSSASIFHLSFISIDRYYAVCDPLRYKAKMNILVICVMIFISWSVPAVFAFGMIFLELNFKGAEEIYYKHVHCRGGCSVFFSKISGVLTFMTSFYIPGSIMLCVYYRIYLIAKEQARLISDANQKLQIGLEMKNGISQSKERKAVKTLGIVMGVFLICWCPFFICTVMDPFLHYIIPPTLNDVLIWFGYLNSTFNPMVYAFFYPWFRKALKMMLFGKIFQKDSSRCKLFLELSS

hTA1 [2] = target: T1, hTA1; experiment: GloSensor cAMP accumulation assay, concentration response, wild-type hTA1 in transfected HEK293T cells; assay type: cell-based; conditions: log[Compound], replicate wells;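 note: luminescence read after 30 min compound exposure at room temperature in cells preloaded with D-Luciferin, reflecting Gs-driven cAMP rise, efficacy scaled to the maximal β-PEA response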

Question: For `C=C[C@H]1C[N@@]2CC[C@H]1C[C@H]2[C@H](O)c1ccnc2ccc(OC)cc12` [Quinine sulfate], which “Luminescence for Screening Data” value (hTA1 [1]) is on record?
Answer: 7.1 and 8 and 6.1 and 7.2

Question: With `Fc1ccc(C(OCCN2CCN(CCCc3ccccc3)CC2)c2ccc(F)cc2)cc1` [GBR12909] as the compound, how does the “Luminescence for Screening Data” value (hTA1 [1]) read?
Answer: 4.8 and 5.2 and 6.6 and 6.2

Question: `N=C(N)NC(=O)c1nc(Cl)c(N)nc1N` [Amiloride] was tested. Which “Luminescence for Screening Data” value (hTA1 [1]) did it give?
Answer: 9.5 and 8.8 and 7 and 8.1

Question: `CNc1cc(OC)c(C(=O)NC2CCN(Cc3ccccc3)C2C)cc1Cl` (centres unmarked) [Nemonapride] was tested. Which “Luminescence for Screening Data” value (hTA1 [1]) did it give?
Answer: 5.7 and 7.5 and 7.3 and 6.6

Question: For `COc1ccc(C(CN(C)C)C2(O)CCCCC2)cc1` (centres unmarked) [Venlafaxine], which “Luminescence for Screening Data” value (hTA1 [1]) is on record?
Answer: 6.7 and 7 and 6 and 6.5

Question: `CN1CCN(c2cccc3c(S(=O)(=O)c4ccccc4)c[nH]c23)CC1` [Ro4368554] was tested. Which “Luminescence for Screening Data” value (hTA1 [1]) did it give?
Answer: 5.1 and 6 and 4.2 and 4.8

Question: How did the “Luminescence for Screening Data” value (hTA1 [1]) turn out when `O=C1CCc2ccc(OCCCCN3CCN(c4cccc(Cl)c4Cl)CC3)cc2N1` [Aripiprazole] was run?
Answer: 3.9 and 3.4 and 5.3 and 4.7

Question: Which “Luminescence for Screening Data” value (hTA1 [1]) does the source give for `COC(=O)[C@H]1[C@H]2C[C@H]3c4[nH]c5ccccc5c4CCN3C[C@H]2CC[C@@H]1O` [Rauwolscine hydrochloride] here?
Answer: 6.9 and 7.7 and 6.8

Question: With `O=C1Cc2cc(CCN3CCN(c4nsc5ccccc45)CC3)c(Cl)cc2N1` [Ziprasidone] as the compound, how does the “Luminescence for Screening Data” value (hTA1 [1]) read?
Answer: 5.8 and 4.8 and 5.4

Question: How did the “Luminescence for Screening Data” value (hTA1 [1]) turn out when `CN1CC2c3ccccc3Oc3ccc(Cl)cc3C2C1` (centres unmarked) [Asenapine maleate] was run?
Answer: 139.1 and 129.2 and 126.2 and 110.4

Question: For `O=C1Nc2ccc(Cl)cc2[C@@](C#CC2CC2)(C(F)(F)F)O1` [Evafirenz], which “Luminescence for Screening Data” value (hTA1 [1]) is on record?
Answer: 3.7 and 4.1 and 4.4 and 4.6

Question: How did the “Luminescence for Screening Data” value (hTA1 [1]) turn out when `CN1CCC(C(=O)c2cccc(NC(=O)c3c(F)cc(F)cc3F)n2)CC1` [Lasmitidan] was run?
Answer: 5.8 and 6.4 and 6.2 and 4.1

Question: How did the “Luminescence for Screening Data” value (hTA1 [1]) turn out when `N#Cc1c[nH]c2c(C(=O)N3CCN(CCc4ccc(F)cc4)CC3)cccc12` [EMD281014] was run?
Answer: 4.2 and 3.9 and 4.4

Question: With `Cl.O=c1[nH]oc2c1CCNC2` [Gaboxadol HCl] as the compound, how does the “Luminescence for Screening Data” value (hTA1 [1]) read?
Answer: 7 and 8.2 and 5.3 and 6.3

Question: With `Cl.O=C(c1ccc(F)cc1)C1CCN(CCn2c(=S)[nH]c3ccccc3c2=O)CC1` [Altanserin hydrochloride hydra] as the compound, how does the “Luminescence for Screening Data” value (hTA1 [1]) read?
Answer: 9.1 and 6 and 8.8 and 5.9

Question: `NCCc1c[nH]c2ccc(O)cc12` [5HT] was tested. Which “Normalized Luminescence Counts for WT hTA1” value (hTA1 [2]; M = -5) did it give?
Answer: 22.7551 and 23.5409 and 27.4699 and 21.1146 and 16.9666 and 15.5049

Question: What about the “Normalized Luminescence Counts for WT hTA1” value (hTA1 [2]; M = -5.522) of the same compound?
Answer: 12.7034 and 13.2601 and 13.0636 and 11.1989 and 10.4878 and 9.8162

Question: What about the “Normalized Luminescence Counts for WT hTA1” value (hTA1 [2]; M = -6) of the same compound?
Answer: 16.6652 and 17.3528 and 14.4388 and 9.54 and 6.932 and 6.5768

Question: What about the “Normalized Luminescence Counts for WT hTA1” value (hTA1 [2]; M = -6.522) of the same compound?
Answer: 9.953 and 14.2096 and 13.2928 and 9.698 and 6.261 and 7.564

Question: What about the “Normalized Luminescence Counts for WT hTA1” value (hTA1 [2]; M = -7) of the same compound?
Answer: 9.7567 and 9.593 and 11.8194 and 6.3 and 5.55 and 6.814

Question: What about the “Normalized Luminescence Counts for WT hTA1” value (hTA1 [2]; M = -7.522) of the same compound?
Answer: 9.298 and 11.492 and 8.12 and 4.167 and 4.444 and 4.799

Question: What about the “Normalized Luminescence Counts for WT hTA1” value (hTA1 [2]; M = -8) of the same compound?
Answer: 9.298 and 7.236 and 9.822 and 3.732 and 3.653 and 4.048

Question: What about the “Normalized Luminescence Counts for WT hTA1” value (hTA1 [2]; M = -8.522) of the same compound?
Answer: 4.387 and 5.369 and 8.578 and 1.7177 and 3.258 and 2.5868

Question: And the “Normalized Luminescence Counts for WT hTA1” value (hTA1 [2]; M = -9)?
Answer: 3.339 and 1.604 and 3.176 and 2.073 and 0.9671 and 0.7301

Question: What about the “Normalized Luminescence Counts for WT hTA1” value (hTA1 [2]; M = -9.522) of the same compound?
Answer: 0.589 and 1.473 and 1.408 and 0.01898 and -0.2575 and -0.4946

Question: What about the “Normalized Luminescence Counts for WT hTA1” value (hTA1 [2]; M = -10) of the same compound?
Answer: 1.702 and 0.2289 and 0.1307 and -0.9291 and -0.09953 and -0.2971

Question: And the “Normalized Luminescence Counts for WT hTA1” value (hTA1 [2]; M = -10.522)?
Answer: 0.6218 and 0.8182 and -0.295 and -1.285 and -0.7316 and -1.364

Question: What about the “Normalized Luminescence Counts for WT hTA1” value (hTA1 [2]; M = -11) of the same compound?
Answer: -0.2622 (2×) and -0.5897 and 0.335 and 0.177 and -0.02052

Question: What about the “Normalized Luminescence Counts for WT hTA1” value (hTA1 [2]; M = -11.522) of the same compound?
Answer: 0.06517 and 0.3926 and -0.09854 and -0.1785 (2×) and 0.09799

Question: What about the “Normalized Luminescence Counts for WT hTA1” value (hTA1 [2]; M = -12) of the same compound?
Answer: 0.1307 and 0.5563 and -0.6551 and -0.6131 and 0.256 and 0.2955

Question: And the “Normalized Luminescence Counts for WT hTA1” value (hTA1 [2]; M = -12.522)?
Answer: -0.2295 and 0.1307 and -0.1313 and 0.6906 and 0.8486 and -0.6921

Question: `CC[C@@H](CO)NC(=O)[C@@H]1C=C2c3cccc4[nH]cc(c34)C[C@H]2N(C)C1` [Methylergonovine] was tested. Which “Normalized Luminescence Counts for WT hTA1” value (hTA1 [2]; M = -5) did it give?
Answer: 45.3336 and 42.9514 and 53.7117 and 43.7792 and 37.0624 and 36.5834

Question: What about the “Normalized Luminescence Counts for WT hTA1” value (hTA1 [2]; M = -5.522) of the same compound?
Answer: 17.8708 and 18.4864 and 21.6449 and 29.4218 and 29.3534 and 29.1139

Question: What about the “Normalized Luminescence Counts for WT hTA1” value (hTA1 [2]; M = -6) of the same compound?
Answer: 12.9992 and 11.3664 and 9.546 and 15.3039 and 15.0416 and 13.8556

Question: What about the “Normalized Luminescence Counts for WT hTA1” value (hTA1 [2]; M = -6.522) of the same compound?
Answer: 6.093 and 6.147 and 6.254 and 7.082 and 6.8879 and 7.207

Question: And the “Normalized Luminescence Counts for WT hTA1” value (hTA1 [2]; M = -7)?
Answer: 4.514 and 3.604 and 5.103 and 3.125 and 3.353 and 3.387

Question: What about the “Normalized Luminescence Counts for WT hTA1” value (hTA1 [2]; M = -7.522) of the same compound?
Answer: 2.5066 and 3.845 and 3.203 and 2.03 and 1.87 and 2.201

Question: And the “Normalized Luminescence Counts for WT hTA1” value (hTA1 [2]; M = -8)?
Answer: 2.5869 and 2.4263 and 1.489 and 1.2088 and 1.368 and 1.722

Question: And the “Normalized Luminescence Counts for WT hTA1” value (hTA1 [2]; M = -8.522)?
Answer: 1.65 and 1.864 and 0.9274 and 1.414 and 1.14 and 1.916

Question: And the “Normalized Luminescence Counts for WT hTA1” value (hTA1 [2]; M = -9)?
Answer: 0.3385 and 0.4991 and -0.009489 and 1.152 and 1.026 and 0.8895

Question: And the “Normalized Luminescence Counts for WT hTA1” value (hTA1 [2]; M = -9.522)?
Answer: -0.06302 and -0.3842 and -0.8125 and 0.7184 and 0.4676 and 0.4447

Question: What about the “Normalized Luminescence Counts for WT hTA1” value (hTA1 [2]; M = -10) of the same compound?
Answer: -0.08979 and -0.3039 and -0.2504 and 0.2509 and 0.1026 and 0.2167

Question: What about the “Normalized Luminescence Counts for WT hTA1” value (hTA1 [2]; M = -10.522) of the same compound?
Answer: -0.3039 and -0.4645 and -0.2236 and 0.05702 and 0.03421 and -0.1026

Question: What about the “Normalized Luminescence Counts for WT hTA1” value (hTA1 [2]; M = -11) of the same compound?
Answer: 0.09758 and -0.2772 and 0.4723 and 0.1825 and -0.1939 and 0

Question: What about the “Normalized Luminescence Counts for WT hTA1” value (hTA1 [2]; M = -11.522) of the same compound?
Answer: 0.4188 and 0.74 and 0.6597 and 0.2395 and 0.7298 and 0.3877

Question: And the “Normalized Luminescence Counts for WT hTA1” value (hTA1 [2]; M = -12)?
Answer: 0.5794 and 0.8471 and 0.74 and 0.3079 and 0.2281 and 0.479

Question: And the “Normalized Luminescence Counts for WT hTA1” value (hTA1 [2]; M = -12.522)?
Answer: -0.4378 and 0.6865 and 0.7668 and 0.6272 and 0.479 and 0.1026
